Data as given in patent US10548911B2, “Small molecule anti-scarring agents” (UNIVERSITY OF ROCHESTER, priority 2014, dated 2020).
“Also recorded” adds a separate entry of the source.

Experiments:
[1] = system: TGFβ-induced myofibroblast formation in human fibroblasts; experiment: Western blot of myofibroblast markers αSMA and calponin in TGFβ-treated human (TED orbital) fibroblasts; assay type: cell-based; details: 250 nM, TGFβ, 72 hours
Method: TED fibroblasts were treated with TGFβ (1 ng/ml) in the presence or absence of 10-250 nM salinomycin for 72 hours to allow formation of myofibroblasts. After 72 hours, cells were harvested and analyzed by Western blot. As expected, the fibroblasts robustly responded to TGFβ, expressing high levels of αSMA and calponin (FIG. 2A). […] At 50 nM salinomycin, expression of αSMA was reduced by 4-fold over TGFβ treatment alone. Furthermore, at 250 nM salinomycin, αSMA expression was reduced by approximately 16-fold, to levels at or below untreated fibroblasts. […] Another key role of myofibroblasts in scar formation is the production of collagen. Whether salinomycin could block myofibroblast collagen production was assessed. Cells were treated with TGFβ and salinomycin as above and after 72 hours, culture medium was collected and analyzed for collagen levels using a specific collagen I antibody and slot blot analysis.
To test these four compounds, human fibroblasts were treated with TGFβ in the absence or presence of 250 nM of either salinomycin, narasin, clioquinol or monensin for 72 hours. After treatment, cell lysates were harvested and analyzed for the presence of the myofibroblast markers, αSMA and calponin (FIG. 3B).

human fibroblasts = experiment: BrdU incorporation assay (cell proliferation); assay type: cell-based
Method: Human fibroblasts were seeded on a 96-well plate at a density of 1×10^5 cells/well. Cells were treated in triplicate. Cell proliferation was determined using the bromodeoxyuridine (BrdU) assay following manufacturer's instructions. Briefly, cells were treated with a BrdU label at a 1:2000 dilution for 24 h after the initial 72 h treatment with TGFβ+/−drugs. BrdU incorporation was measured using the BrdU Cell Proliferation Assay kit (Calbiochem, San Diego, Calif.) at 450-540 nm using a Varioskan microplate reader.
While salinomycin and other polyether ionophores blocked myofibroblast formation, it was next assessed whether these effects were a result of toxicity and/or due to a block of cell proliferation. Though the treatment doses are relatively low (efficacy in 100-250 nM range), a loss of cell viability could still be a possibility. To test this, human fibroblasts were treated with vehicle (DMSO), 50-250 nM salinomycin alone, TGFβ or TGFβ plus 250 nM salinomycin. As a positive control, fibroblasts were treated with the cytotoxic drug, puromycin. Treated cells were cultured in the presence of alamar blue reagent, which measures mitochondrial oxidation-reduction (REDOX) potential and serves as a quantitative viability sensor. After 72 hours of culture, alamar blue fluorescence was measured to assay cell viability (FIG. 4A). […] It was also tested whether salinomycin affects basal fibroblast proliferation. To address this, cells were treated with vehicle or 250 nm of either salinomycin or narasin for 24 hours in the presence of bromodeoxyuridine (BrdU) to measure cell proliferation ([…], first three bars). […] BrdU was also added to cells treated with TGFβ in the presence or absence of 250 nM salinomycin or narasin (FIG. 4B, last three bars). As expected, TGFβ induced human fibroblast proliferation. Remarkably, both salinomycin and narasin were able to beneficially block TGFβ induced proliferation by 4 to 5 fold, without affecting basal proliferation levels.

[2] = system: primary human orbital fibroblasts; experiment: TGFβ-induced myofibroblast formation, αSMA Western blot, primary human orbital fibroblasts; details: HCPT 50 nM to 500 nM, TGFβ
Method: Total protein was isolated from 0.5-2×10^6 cells and lysed in 60 mM Tris, pH 6.8, 2% SDS containing 1× protease inhibitor cocktail (Sigma, St. Louis, Mo.). The lysates were passed through a 26 gauge needle 5-6 times to shear genomic DNA. Protein concentrations were determined using the detergent compatible protein assay (BioRad). Total protein (1-10 ug per lane) was subjected to SDS-PAGE. Protein gels were transferred to PVDF membrane (Millipore) and probed with antibodies as specified. Western blot band intensities were quantified using ImageLab software (BioRad). Protein expression was normalized to β-tubulin levels.
Primary human orbital fibroblasts, primary human lung fibroblasts, and primary mouse lung fibroblasts were treated with TGFβ and HCPT (50 nM, 500 nM, and 5000 nM) or SNC (500 nM) or AXD (0.5 μM, 5 μM, and 50 μM) to assess the ability of HCPT to inhibit myofibroblast formation. […] Western blots were performed using cell lysates from the fibroblasts exposed to TGFβ to assess TGFβ-dependent αSMA expression.
Primary human orbital fibroblasts were treated with TGFβ and either 6-formylindolo(3,2-b)carbazole (“FICZ”, 1 μM), Omeprazole (“Ome”, 2 μM, 10 μM, 50 μM, 100 μM, 250 μM, 500 μM), or Flutamide (“Flut”, 2 μM, 10 μM, 50 μM, 100 μM, 250 μM, 500 μM) to assess their ability to inhibit myofibroblast formation. […] Western blots were performed using cell lysates from the fibroblasts exposed to TGFβ to assess TGFβ-dependent αSMA expression. Densitometry analyses of the Western blots were also performed.

[3] = system: primary human lung fibroblasts; experiment: TGFβ-induced myofibroblast formation, αSMA Western blot and cell images, primary human lung fibroblasts; assay type: cell-based
Method: Human lung fibroblasts were treated with various concentrations of 10-hydroxycamptothecin (HCPT) (50 nM or 500 nM) and induced to form scar-forming myofibroblasts by treating with TGFβ.

[4] = system: primary mouse lung fibroblasts; experiment: TGFβ-induced myofibroblast formation, αSMA Western blot, primary mouse lung fibroblasts; assay type: cell-based; details: HCPT 50 nM to 500 nM
Method: Salinomycin and alexidine served as positive controls for anti-fibrotic activity. Western blots were performed using cell lysates from the fibroblasts exposed to TGFβ to assess TGFβ-dependent αSMA expression.

Row | SMILES | expression of αSMA and calponin [1] | TGFβ induced proliferation (BrdU incorporation) (human fibroblasts; 250 nM plus TGFβ) | basal fibroblast proliferation (BrdU incorporation) (human fibroblasts; 250 nM, without TGFβ) | myofibroblast formation (relative αSMA expression) [2] | overt toxicity (cell images) ([3]; HCPT 50 nM or 500 nM) | formation of myofibroblasts (cell images) ([3]; HCPT 50 nM or 500 nM, TGFβ) | myofibroblast formation (relative αSMA expression) ([3]; HCPT 50 nM to 500 nM, TGFβ) | myofibroblast formation (relative αSMA expression) [4]
1 | CC[C@@H](C(=O)O)[C@@H]1O[C@@H]([C@@H](C)[C@H](O)[C@H](C)C(=O)[C@H](CC)[C@H]2O[C@]3(C=C[C@@H](O)[C@]4(CC[C@@](C)([C@H]5CC[C@](O)(CC)[C@H](C)O5)O4)O3)[C@H](C)C[C@@H]2C)[C@@H](C)C[C@@H]1C [narasin] | inhibited expression of αSMA and calponin | significantly blocked TGFβ induced proliferation | did not affect basal fibroblast proliferation; also recorded: Neither salinomycin nor narasin blocked basal fibroblast proliferation | – | – | – | – | –
2 | CC[C@@]1(O)C(=O)OCc2c1cc1n(c2=O)Cc2cc3cc(O)ccc3nc2-1 [HCPT, 10-hydroxycamptothecin] | – | – | – | potently blocks myofibroblast formation; also recorded: dose-dependent inhibition of αSMA | without being overtly toxic; also recorded: with out being overtly toxic | not in samples treated with HCPT or SNC; also recorded: not in samples with HCPT or salinomycin (SNC) | potently blocks myofibroblast formation; also recorded: dose-dependent inhibition of αSMA | less effective in blocking myofibroblast formation; also recorded: potently blocks myofibroblast formation
